Columns and labels:
Human ALK = Human ALK (Homo sapiens (Human), UniProt Q9UM73); assay: ALK enzyme inhibition assay (Reaction Biology Corporation); format: biochemical; settings: poly[Glu:Tyr] (4:1) 0.2 mg/ml, ATP 10 μM; read-out: Inhibitory Activities IC50, ALK
Experimental: (§1) The inhibitory activities of compounds of Formula I were assay at Reaction Biology Corporation, One Great Valley Parkway, Malvern, Pa., USA. Human ALK and cMet enzymes were used and the substrate was a peptide substrate, poly[Glu:Tyr] (4:1) at a concentration of 0.2 mg/ml.

Human cMet = Human cMet (Homo sapiens (Human), UniProt P08581); assay: cMet enzyme inhibition assay (Reaction Biology Corporation); format: biochemical; settings: poly[Glu:Tyr] (4:1) 0.2 mg/ml, ATP 10 μM; read-out: Inhibitory Activities IC50, cMet
Experimental: as §1

Human cMet, sequence (P08581 25-1390): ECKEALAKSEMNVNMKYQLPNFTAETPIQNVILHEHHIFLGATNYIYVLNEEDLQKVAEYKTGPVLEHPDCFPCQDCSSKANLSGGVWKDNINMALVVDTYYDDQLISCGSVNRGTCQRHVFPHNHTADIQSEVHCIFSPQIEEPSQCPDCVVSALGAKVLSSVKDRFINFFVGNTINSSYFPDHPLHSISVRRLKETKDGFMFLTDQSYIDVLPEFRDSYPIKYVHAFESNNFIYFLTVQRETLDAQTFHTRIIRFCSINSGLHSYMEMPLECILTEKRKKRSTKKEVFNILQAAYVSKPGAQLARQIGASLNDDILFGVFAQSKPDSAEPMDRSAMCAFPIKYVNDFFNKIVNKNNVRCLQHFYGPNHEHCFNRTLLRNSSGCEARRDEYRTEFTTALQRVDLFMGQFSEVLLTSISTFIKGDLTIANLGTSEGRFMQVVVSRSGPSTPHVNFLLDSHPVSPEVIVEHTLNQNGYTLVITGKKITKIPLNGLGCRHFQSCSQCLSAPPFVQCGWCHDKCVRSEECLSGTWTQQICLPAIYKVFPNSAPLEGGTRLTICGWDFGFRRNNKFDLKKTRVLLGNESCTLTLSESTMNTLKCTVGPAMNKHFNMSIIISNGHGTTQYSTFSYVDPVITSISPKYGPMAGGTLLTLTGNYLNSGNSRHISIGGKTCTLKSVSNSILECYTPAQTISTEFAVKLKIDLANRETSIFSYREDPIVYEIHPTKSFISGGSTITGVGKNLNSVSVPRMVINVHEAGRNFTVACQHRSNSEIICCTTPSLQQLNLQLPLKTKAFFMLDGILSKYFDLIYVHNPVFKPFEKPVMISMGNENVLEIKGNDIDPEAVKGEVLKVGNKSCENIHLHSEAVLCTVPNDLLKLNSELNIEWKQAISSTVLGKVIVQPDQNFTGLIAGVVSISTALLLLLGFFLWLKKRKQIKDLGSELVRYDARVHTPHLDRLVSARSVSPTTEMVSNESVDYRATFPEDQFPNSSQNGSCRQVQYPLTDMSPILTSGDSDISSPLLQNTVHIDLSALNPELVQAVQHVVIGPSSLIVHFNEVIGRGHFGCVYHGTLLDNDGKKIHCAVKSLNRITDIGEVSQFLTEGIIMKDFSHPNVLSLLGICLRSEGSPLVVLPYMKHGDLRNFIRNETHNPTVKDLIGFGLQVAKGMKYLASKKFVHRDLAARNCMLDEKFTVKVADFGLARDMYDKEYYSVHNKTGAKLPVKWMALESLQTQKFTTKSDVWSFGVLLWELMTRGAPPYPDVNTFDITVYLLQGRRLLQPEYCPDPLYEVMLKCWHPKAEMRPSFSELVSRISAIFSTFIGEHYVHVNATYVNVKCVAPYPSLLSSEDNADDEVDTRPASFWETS
Human ALK, sequence (Q9UM73 19-1620): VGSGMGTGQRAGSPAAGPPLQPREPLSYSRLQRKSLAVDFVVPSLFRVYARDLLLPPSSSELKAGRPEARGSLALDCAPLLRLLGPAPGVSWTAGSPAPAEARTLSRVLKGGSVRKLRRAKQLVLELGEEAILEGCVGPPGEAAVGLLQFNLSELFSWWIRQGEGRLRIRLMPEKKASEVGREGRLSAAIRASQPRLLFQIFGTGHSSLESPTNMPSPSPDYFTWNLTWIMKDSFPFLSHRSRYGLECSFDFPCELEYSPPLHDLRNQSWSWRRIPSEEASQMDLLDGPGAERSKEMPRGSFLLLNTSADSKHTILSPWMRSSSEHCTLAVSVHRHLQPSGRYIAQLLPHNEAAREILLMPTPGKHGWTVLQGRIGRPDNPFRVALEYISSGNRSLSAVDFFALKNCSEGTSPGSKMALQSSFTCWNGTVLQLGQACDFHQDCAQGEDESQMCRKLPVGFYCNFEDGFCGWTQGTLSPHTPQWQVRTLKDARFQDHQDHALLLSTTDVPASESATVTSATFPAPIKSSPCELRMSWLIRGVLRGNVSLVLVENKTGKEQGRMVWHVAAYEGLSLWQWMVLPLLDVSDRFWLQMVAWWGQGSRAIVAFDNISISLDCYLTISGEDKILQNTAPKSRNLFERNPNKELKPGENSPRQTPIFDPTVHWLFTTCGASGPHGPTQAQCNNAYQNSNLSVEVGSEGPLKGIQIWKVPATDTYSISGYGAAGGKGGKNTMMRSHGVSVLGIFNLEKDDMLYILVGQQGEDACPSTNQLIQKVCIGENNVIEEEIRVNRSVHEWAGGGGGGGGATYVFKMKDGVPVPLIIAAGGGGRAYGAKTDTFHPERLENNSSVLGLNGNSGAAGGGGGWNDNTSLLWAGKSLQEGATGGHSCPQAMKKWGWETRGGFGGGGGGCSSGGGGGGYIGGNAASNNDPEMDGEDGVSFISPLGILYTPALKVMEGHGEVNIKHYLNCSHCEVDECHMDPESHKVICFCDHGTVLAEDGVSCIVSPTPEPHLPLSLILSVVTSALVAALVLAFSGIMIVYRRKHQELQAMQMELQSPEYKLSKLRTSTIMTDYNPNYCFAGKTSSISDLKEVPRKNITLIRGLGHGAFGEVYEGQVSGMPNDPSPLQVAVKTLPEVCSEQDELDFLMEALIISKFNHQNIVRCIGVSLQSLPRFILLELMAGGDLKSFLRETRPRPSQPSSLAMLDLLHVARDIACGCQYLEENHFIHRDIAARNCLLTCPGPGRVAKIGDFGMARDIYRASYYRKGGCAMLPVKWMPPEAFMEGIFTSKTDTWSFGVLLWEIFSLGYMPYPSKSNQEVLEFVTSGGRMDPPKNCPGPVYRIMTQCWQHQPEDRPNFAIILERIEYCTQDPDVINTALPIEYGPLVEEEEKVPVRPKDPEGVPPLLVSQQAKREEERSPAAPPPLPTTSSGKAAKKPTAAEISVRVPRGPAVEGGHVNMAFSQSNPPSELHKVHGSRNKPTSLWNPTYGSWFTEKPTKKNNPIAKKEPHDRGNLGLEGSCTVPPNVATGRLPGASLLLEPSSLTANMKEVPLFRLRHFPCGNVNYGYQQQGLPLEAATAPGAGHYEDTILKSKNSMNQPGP

| Compound | IC50 (Human ALK) [nM] | IC50 (Human cMet) [nM] |
| --- | --- | --- |
| C[C@@H](Oc1cc(-c2cnn(C3CCC4(CC3)CNC4)c2)cnc1N)c1c(Cl)ccc(F)c1Cl [Example 4, (R)-5-(1-(2-azaspiro[3.5]nonan-7-yl)-1H-pyrazol-4-yl)-3-((R)-1-(2,6-dichloro-3-fluorophenyl)ethoxy)pyridin-2-amine] | 4.31 | 4.8 |
| C[C@@H](Oc1cc(-c2cnn(C3CC4(CNC4)C3)c2)cnc1N)c1c(Cl)ccc(F)c1Cl [Example 2, (R)-5-(1-(2-azaspiro[3.3]heptan-6-yl)-1H-pyrazol-4-yl)-3-(1-(2,6-dichloro-3-fluorophenyl)ethoxy)pyridin-2-amine] | 2.21 |  |
| C[C@@H](Oc1cc(-c2cnn(C3CC4(CCCNC4)C3)c2)cnc1N)c1c(Cl)ccc(F)c1Cl (stereo partly drawn) [Example 5] | 1.92 | 2.09 |
| C[C@@H](Oc1cc(-c2cnn(C3CC4(CCNCC4)C3)c2)cnc1N)c1c(Cl)ccc(F)c1Cl [Example 3, (R)-5-(1-(7-azaspiro[3.5]nonan-2-yl)-1H-pyrazol-4-yl)-3-((R)-1-(2,6-dichloro-3-fluorophenyl)ethoxy)pyridin-2-amine] |  | 8.9 |

Reference: patent publication US9226923B2, “Spirocyclic molecules as protein kinase inhibitors” (Nanjing Allgen Pharma Co. Ltd., priority 2011, dated 2016)
